The record followed here is patent US8431522B2, “Methods of inhibiting tumor cell proliferation” (The Board of Trustees of the University of Illinois, priority 2003, dated 2013).

The test system of test [1] is FoxM1B transcriptional activity. As to the kind of experiment: FoxM1B transcription assay with 6X FoxM1B TATA-luciferase reporter in transfected U2OS cells. It is filed as cell-based, human. The procedure:
U20S TetR cells were transiently co-transfected with the reporter 6X-FoxM1B-TATA-Luciferase and CMV-TO-FoxM1B (500 ng) alone or with increasing amounts of either CMV-DN-Cdk1, Cdk1 pharmacological inhibitor Alsterpaullone or CMV-Myt1. Results are expressed as the percent activity with respect to wild-type FoxM1B using four separate transfection experiments were performed in triplicate to calculate ±SD.
U20S TetR cells were transiently co-transfected with the reporter 6X-FoxM1B-TATA-Luciferase and CMV-TO-FoxM1B (500 ng) with CMV-DN-p90Rsk, CMV-DN-Ras or DN-AKT or with 50 μM of either U0126 or Ly294002 alone or together or with 25 μM of Akt inhibitor. Four separate transfection experiments were performed in triplicate to calculate ±SD.
A 6X FoxM1B/FoxA TATA-Luciferase utilized 6 copies of the FoxM1B/FoxA binding site (TTTGTTTGTTTG; SEQ ID NO: 6) from the cdx-2 promoter region driving expression of the CMV-TATA box luciferase reporter gene as described previously (Rausa et al., 2003, Mol. Cell. Biol. 23:437-449; Samadani et al., 1996, Mol. Cell. Biol. 16:6273-6284; Ye et al., 1997, Mol. Cell Biol. 17:1626-1641).
Inhibiting Cdk1 activity with either dominant negative (DN) Cdk1 or a pharmacologically active concentration of Alsterpaullone (1 μM) caused an 80% to 90% reduction in FoxM1B transcriptional activity (FIG. 6C). […] Consistent with these findings, stimulation of Cdk1 activity by co-transfection of either CMV Cdc25B or Cdc25C phosphatases enhanced FoxM1B transcriptional activity by 3.4-fold and 1.7-fold, respectfully (FIGS. 6B and 6D). […]
Human osteosarcoma U2OS cells were maintained in DMEM supplemented with 10% fetal calf serum, 1× Pen/Strep and 1× L-Glutamine (Gibco). […] Luciferase activity was determined as percent of wild type FoxM1B activity following normalization to Renilla activity. Experiments were performed at least four times in triplicate and mean±SD determined. […]
(In general: In a reporter assay the amount or activity of a reporter protein is the signal.)

Test [2] deals with U2OS cells. As to the kind of experiment: Cellular uptake and localization of TRITC-tagged peptide in U2OS cells. Type of test: cell-based, human. Conditions: 12 μM, three days.
Test [3] relates to U2OS clone C3 cells. As to the kind of experiment: Soft agar colony formation, Doxycycline induced CMV-TETO GFP-FoxM1B U2OS clone C3 cells. It is filed as cell-based, human. The note with it: 12 μM peptide, 1 μg/ml Doxycycline, two weeks. The procedure: (§1) The T-REx™-U2OS cells were purchased from Invitrogen Life Technologies (Catalog No. R712-07). The T-REx™-U2OS cells express the Tet repressor from pCEP4/tetR that was episomally maintained in tissue culture medium containing 10% fetal calf serum and drug selection with 50 μg/ml of Hygromycin B. Tetracycline regulation in the T-REx System was based on the binding of tetracycline to the TET repressor and de-repressing of the CMV-TETO promoter controlling expression of the gene of interest (Yao et al., 1998, Hum Gene Ther 9:1939-1950). […] U2OS cell colonies that were larger than 1 mm in size were scored after two weeks of growth on the soft agar.
In addition, the tetracycline (TET) regulated T-REx™ System described above was used to conditionally express the GFP-FoxM1B protein in U2OS cells to determine whether conditional overexpression of FoxM1B protein could enhance anchorage-independent growth of U2OS cells. […] The U2OS clone C3 cell line was selected to examine whether doxycycline induced FoxM1B-GFP expression enhanced anchorage-independent growth as assessed by propagation for two weeks on soft agar (Conzen et al., 2000, Mol Cell Biol 20:6008-6018).

Test [4] relates to parental U2OS cells. As to the kind of experiment: Soft agar colony formation, parental (wild type) U2OS cells. The note with it: 12 μM peptide, two weeks. It is filed as cell-based, human. As for the experimental part:
as §1, with “9:1939-1950). The pCDNA4-TO GFP-FoxM1B expression plasmid provided in the T-REx™ system was generated as described previously (Major et al., 2004, Mol. Cell. Biol. 24:2649-2661) and transfected T-REx™-U2OS cells with linearized pCDNA4-TO GFP-Foxm1b expression plasmid to select clonal Doxycycline inducible GFP-Foxm1b U2OS cell lines. CMV-TETO GFP-FoxM1B U2OS clones were isolated by selection for three weeks with tissue culture medium containing 50 μg/ml of Hygromycin B and 250 μg/ml of Zeocin. […] Wild type U2OS cells or CMV-TETO GFP-Foxm1b U2OS clone C3 cells were grown in medium with or without 1 μg/ml of Doxycycline for 2 days prior to either adding the (D-Arg)9-p19^ARF 26-44 peptide or left untreated.” for “9:1939-1950).”

Test [5] concerns GFP-FoxM1B fusion protein. The test can be described thus: Localization of GFP-FoxM1B fusion protein in transfected U2OS cells (fluorescence). The note with it: for targeting of GFP-FoxM1B protein to the nucleolus: cotransfection of expression vector. It is filed as cell-based, human. The text has this: FIGS. 7A-H show nuclear localization of GFP-FoxM1B fusion protein following treatment with either pharmacological kinase inhibitors or dominant negative kinases. U20S cells were transiently transfected with CMV GFP-FoxM1B with the indicated pharmacological kinase inhibitors (B-D) or dominant-negative kinase expression vectors (E-H). Cells in panel (A) were untreated.
U2OS cells were transiently transfected in 2 well chamber slides (Nunc) with CMV GFP-FoxM1B expression constructs in the presence or absence of either CMV WT T7-p19^ARF, CMV HA-p19^ARF, or CMV expression constructs containing either N-terminal mutant T7-p19^ARF proteins (Δ1-14, Δ15-25, or Δ26-37) or V5-TAT-p19^ARF proteins (26-44; SEQ ID NO: 11, or 26-55; SEQ ID NO: 12). U2OS cells were transiently transfected with CMV EGFP expression vector containing the TAT-p19^ARF proteins (26-44; SEQ ID NO: 11, or 26-55; SEQ ID NO: 12). Forty-eight hours post transfection, cells were fixed in 4% Para-formaldehyde for 20 minutes at room temperature. GFP fluorescence or immuno-fluorescence with anti-HA antibody following TRITC conjugated secondary antibody was detected using a Zeiss microscope. U2OS cells were treated with 12 μM of the arrrarrKFVRSRRPRTASCALAFVN (SEQ ID NO: 10) peptide for 24 hours and then analyzed for TRITC fluorescence as described above.

The target in test [6] is T1, FoxM1B protein (Homo sapiens, UniProt Q08050).
T1 construct: expressed in transfected cells; host or cells: U2OS (human osteosarcoma) cells, transient transfection
T1 sequence (Q08050 1-748 isoform Q08050-2): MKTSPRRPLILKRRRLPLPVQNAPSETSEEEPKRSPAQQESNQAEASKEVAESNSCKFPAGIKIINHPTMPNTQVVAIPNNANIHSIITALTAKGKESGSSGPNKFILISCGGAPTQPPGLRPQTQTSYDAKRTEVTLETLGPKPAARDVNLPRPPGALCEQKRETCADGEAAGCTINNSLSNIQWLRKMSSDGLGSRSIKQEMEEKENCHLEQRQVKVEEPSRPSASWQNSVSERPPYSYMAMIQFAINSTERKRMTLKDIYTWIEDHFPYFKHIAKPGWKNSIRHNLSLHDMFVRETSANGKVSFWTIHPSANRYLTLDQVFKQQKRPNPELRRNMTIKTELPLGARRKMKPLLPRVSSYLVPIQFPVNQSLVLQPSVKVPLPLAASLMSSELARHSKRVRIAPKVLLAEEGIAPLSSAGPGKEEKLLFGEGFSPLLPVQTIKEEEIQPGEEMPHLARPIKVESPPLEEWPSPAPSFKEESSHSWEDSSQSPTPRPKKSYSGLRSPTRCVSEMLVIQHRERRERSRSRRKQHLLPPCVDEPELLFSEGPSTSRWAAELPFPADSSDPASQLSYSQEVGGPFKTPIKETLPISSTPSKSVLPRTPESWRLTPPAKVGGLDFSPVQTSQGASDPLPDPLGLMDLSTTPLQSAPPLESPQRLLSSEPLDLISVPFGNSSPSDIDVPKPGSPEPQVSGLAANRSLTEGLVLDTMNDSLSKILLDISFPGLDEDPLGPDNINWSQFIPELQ
The test can be described thus: Co-immunoprecipitation of V5-tagged p19ARF sequences with GFP-FoxM1B from transfected U2OS extracts. The note with it: V5 antibody IP, GFP Western blot. Type of test: binding. The procedure: The p19 protein was immunoprecipitated from transfected protein extracts with V5 epitope antibody followed by Western blot analysis with GFP monoclonal antibody.
To identify p19 protein sequences that are sufficient for association with FoxM1B protein, Co-IP assays were performed with protein extracts prepared from U2OS cells that were transiently transfected with CMV GFP-FoxM1B expression plasmid and the CMV expression vector containing the V5 epitope tagged p19^ARF 26-44 or p19^ARF 26-55 sequences. At the amino terminus of either the p19^ARF sequences 26 to 44 or 26 to 55, we placed the protein transduction/nuclear localization domain ([…]; SEQ ID NO: 13) from the HIV-TAT protein (Becker-Hapak et al., 2001, Methods 24:247-256). Protein extracts were incubated with the V5 epitope tag antibody to IP the p19 protein followed by Western blot analysis with GFP monoclonal antibody to detect the GFP-FoxM1B fusion protein.

Setting [7] is: cotransfection of CMV expression vector, U2OS cells.

Entries after “also recorded” stand apart in the source; their conditions may differ. Non-standard residues stand in square brackets, D forms with d. No end group written: not given here.

“rrrrrrrrrKFVRSRRPRTASCALAFVN ([dR][dR][dR][dR][dR][dR][dR][dR][dR]KFVRSRRPRTASCALAFVN; listed as Mus musculus) [(D-Arg)9-p19^ARF 26-44 peptide, p19ARF 26-44 peptide containing nine D-Arg residues at the N-terminus]”: the FoxM1B transcriptional activity entry in test [1] (12 μM peptide, 24 hours, transfected U2OS cells) is “significant reduction in FoxM1B transcriptional activity; also recorded: effective inhibitor of FoxM1B transcriptional activity”. In addition, the “transduction into cells and localization of peptide fluorescence” value in test [2] was “efficiently transduced into all of the cells and that its fluorescence localized to the nucleolus; also recorded: transduced into the cell and was localized to the nucleolus”. Besides, the “FoxM1B induced colony formation on soft agar” value in test [3] is “significantly diminished the ability of induced GFP-FoxM1B to stimulate colony formation”. Besides, the “colony formation on soft agar” value in test [4] is “significantly diminished the ability of the parental U2OS cells to form colonies on soft agar; also recorded: significantly inhibited colony formation of U2OS cells on soft agar”.

Take “KFVRSRRPRTASCALAFVN (Mus Musculus) [V5-TAT-p19^ARF 26-44]”: the FoxM1B transcriptional activity result in test [1] (setting [7]) is recorded as “able to significantly decrease FoxM1B transcriptional activity”. The “targeting of GFP-FoxM1B protein to the nucleolus” value in test [5] is “targeted to the nucleolus”. Besides, the “association with FoxM1B protein (Co-IP)” value in test [6] was “sufficient to associate with the FoxM1B protein”.

For “KFVRSRRPRTASCALAFVNMLLRLERILRR (listed as Mus musculus) [V5-TAT-p19^ARF 26-55]”, the FoxM1B transcriptional activity result in test [1] (setting [7]) is reported as “able to significantly decrease FoxM1B transcriptional activity”. Moreover, in test [5], the “targeting of GFP-FoxM1B protein to the nucleolus” value was “targeted to the nucleolus”.

On to `O=C1Cc2c([nH]c3ccc([N+](=O)[O-])cc23)-c2ccccc2N1` [Alsterpaullone, reference compound], for which, in test [5] (Alsterpaullone 1 μM), the “nuclear localization of transfected CMV GFP-FoxM1B protein” value was “Neither DN-Cdk1 nor Alsterpaullone (1 μM) altered nuclear localization”.
